We go through one substance from patent US6875594B2, “Methods of ligating expressed proteins” (The Rockefeller University, priority 1997, dated 2005).

The target in the test is AsiA (Enterobacteria phage T4, UniProt P32267). Particulars: His-tagged σ fragment on Ni2+-NTA beads, imidazole elution.
Sequence of AsiA (P32267 whole entry, the tested form may be a part): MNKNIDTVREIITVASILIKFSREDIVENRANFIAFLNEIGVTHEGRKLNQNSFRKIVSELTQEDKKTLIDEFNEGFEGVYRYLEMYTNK

Protocol: The complementary experiment was done using wild type, untagged AsiA. Instead, a synthetic hexahistidine tag was chemically ligated to the N-terminus of σ568-600 as described herein. AsiA and His-tagged σ fragment were loaded on Ni^2+NTA beads, the beads were washed and eluted with increasing concentrations of imidazole in the buffer.
100 μl reactions contained 15 μl of Ni^2+-NTA agarose (Qiagen), 50-100 pmol σ^70 or σ^70 derivative, 200 pmol AsiAHis, 20 mM Tris-HCl, pH 7.9, 100 mM KCl, 10 mM MgCl2. Reactions were preincubated for 15 min at room temperature, after which the beads were pelleted by brief centrifugation and the supernatant, containing the unbound material was removed. The beads were then washed three times with the same buffer containing 10 mM imidazole, pH 8.0, resuspended in 50 μl of the buffer containing 100 mM imidazole and incubated for additional 15 min at room temperature. The supernatant containing the bound material was then withdrawn. Aliquots of the reactions were then analyzed on 8-25% Phast gels (Pharmacia) and silver stained.

For the substance “His6-Cys-[SCH2]-aminocaproate-σ568-600 [His-tagged σ568-600]”, the “interaction with wild type, untagged AsiA” value was “strong interaction”.
